The target of this test is B-Raf (V600E)-kinase (Homo sapiens, UniProt P15056, V600E). Briefly: Kinase test B-Raf (V600E). To be noted: compound concentration 2 μM; 100% = no inhibition, 0% = total inhibition; read-out: % CTL (residual activity of the enzyme relative to DMSO control). The format is biochemical. In outline:
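Kinase preincubated with compound (typically 2 μM to 0.119 nM or 0.017 nM, 5% DMSO) 1 h at RT, then reacted 60 min at RT with 250 μM ATP and biotinylated MEK1. Phospho-MEK (Ser217/221) captured on streptavidin, detected by europium time-resolved fluorescence; IC50 from dose-response curves.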

B-Raf (V600E)-kinase, sequence (P15056 whole entry V600E): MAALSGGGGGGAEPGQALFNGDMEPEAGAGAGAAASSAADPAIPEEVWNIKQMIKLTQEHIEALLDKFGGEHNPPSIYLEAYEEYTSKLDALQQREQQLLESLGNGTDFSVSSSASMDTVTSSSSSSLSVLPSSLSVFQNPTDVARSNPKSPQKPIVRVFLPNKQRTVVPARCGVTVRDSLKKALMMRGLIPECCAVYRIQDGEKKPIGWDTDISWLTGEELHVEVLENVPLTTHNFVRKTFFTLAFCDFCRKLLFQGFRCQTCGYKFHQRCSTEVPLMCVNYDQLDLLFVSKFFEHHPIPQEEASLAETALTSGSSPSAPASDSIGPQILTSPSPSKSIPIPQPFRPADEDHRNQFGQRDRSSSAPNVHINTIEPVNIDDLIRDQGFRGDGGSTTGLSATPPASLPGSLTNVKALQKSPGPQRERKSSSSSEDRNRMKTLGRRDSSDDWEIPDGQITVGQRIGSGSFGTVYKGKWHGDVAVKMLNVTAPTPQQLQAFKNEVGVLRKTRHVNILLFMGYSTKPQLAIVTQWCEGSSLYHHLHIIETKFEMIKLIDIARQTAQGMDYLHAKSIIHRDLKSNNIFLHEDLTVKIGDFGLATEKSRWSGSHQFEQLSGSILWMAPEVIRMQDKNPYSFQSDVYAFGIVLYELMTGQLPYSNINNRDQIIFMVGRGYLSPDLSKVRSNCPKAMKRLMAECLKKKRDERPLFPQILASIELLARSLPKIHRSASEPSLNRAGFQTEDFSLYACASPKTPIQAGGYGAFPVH

On to `Cc1ncc(C(=O)Nc2ccc(Cl)c(C(C)(C)C)c2)cc1-n1cc(-c2cncc(N3CCN(C)CC3)c2)nn1` [Example I-147], for which the remaining activity at 2 µM was 3.1%.

In the case of `Cc1ncc(C(=O)Nc2nc(C(C)(C)C)cs2)cc1-n1cc(-c2cncc(N3CCN(C(C)C)CC3)c2)nn1` [Example I-148], the remaining activity at 2 µM was found to be 4%. Take `Cc1ncc(C(=O)Nc2cn(C(C)C)nn2)cc1-n1cc(-c2cncc(N3CCN(C(C)C)CC3)c2)nn1` [Example I-149]: the remaining activity at 2 µM was 2.1%. The figure for `Cc1ncc(C(=O)Nc2cnn(C(C)C)c2)cc1-n1cc(-c2cncc(N3CCN(C(C)C)CC3)c2)nn1` [Example I-150] is 4.1%; for `Cc1ncc(C(=O)Nc2cnn(C(C)C)c2C)cc1-n1cc(-c2cncc(N3CCN(C(C)C)CC3)c2)nn1` [Example I-151] it is 4.5%; for `Cc1ncc(C(=O)Nc2cc(C(F)(F)F)ccn2)cc1-n1cc(-c2cncc(N3CCN(C(C)C)CC3)c2)nn1` [Example I-152] it is 2.4%. The figure for `Cc1ncc(C(=O)Nc2nnc(C(C)(C)C)s2)cc1-n1cc(-c2cncc(N3CCN(C(C)C)CC3)c2)nn1` [Example I-153] is 1.8%; for `Cc1ncc(C(=O)Nc2cc(C(C)C)no2)cc1-n1cc(-c2cncc(N3CCN(C(C)C)CC3)c2)nn1` [Example I-154] it is 2.9%. The figure for `Cc1ncc(C(=O)Nc2cc(C(C)(C)C)ncn2)cc1-n1cc(-c2cncc(N3CCN(C(C)C)CC3)c2)nn1` [Example I-155] is 2.6%; for `CCCN1CCN(c2cncc(-c3cn(-c4cc(C(=O)Nc5cc(C(C)(C)C)on5)cnc4C)nn3)c2)CC1` [Example I-164] it is 9.9%. Take `Cc1ncc(C(=O)Nc2cc(C(C)(C)C)on2)cc1-n1cc(-c2cncc(N3CCN(C4CC4)CC3)c2)nn1` [Example I-165]: the remaining activity at 2 µM was determined as 8.9%. In the case of `Cc1ncc(C(=O)Nc2cc(C(C)(C)C)on2)cc1-n1cc(-c2cncc(N3CCN(C4CCCC4)CC3)c2)nn1` [Example I-166] it was 7.9%. Consider `Cc1ncc(C(=O)Nc2cc(C(C)(C)C)on2)cc1-n1cc(-c2cncc(N3CCN(C(C)(C)C)CC3)c2)nn1` [Example I-167], for which the remaining activity at 2 µM turned out to be 7.9%. In the case of `Cc1ncc(C(=O)Nc2cc(C(C)(C)C)on2)cc1-n1cc(-c2cncc(N3CCN(CCCO)CC3)c2)nn1` [Example I-168] it was 9.8%; in that of `COCCCN1CCN(c2cncc(-c3cn(-c4cc(C(=O)Nc5cc(C(C)(C)C)on5)cnc4C)nn3)c2)CC1` [Example I-169], 8.4%. For the molecule `CCOCCN1CCN(c2cncc(-c3cn(-c4cc(C(=O)Nc5cc(C(C)(C)C)on5)cnc4C)nn3)c2)CC1` [Example I-170], the remaining activity at 2 µM was 7.5%. The figure for `Cc1ncc(C(=O)Nc2cc(C(C)(C)C)on2)cc1-n1cc(-c2cncc(N3CCN(CC(C)C)CC3)c2)nn1` [Example I-171] is 7.7%; for `CCCCN1CCN(c2cncc(-c3cn(-c4cc(C(=O)Nc5cc(C(C)(C)C)on5)cnc4C)nn3)c2)CC1` [Example I-172] it is 8%; for `Cc1ncc(C(=O)Nc2cc(C(C)(C)C)on2)cc1-n1cc(-c2cncc(N3CCN(CC4CCCCC4)CC3)c2)nn1` [Example I-173] it is 2.4%. In the case of `C=CCN1CCN(c2cncc(-c3cn(-c4cc(C(=O)Nc5cc(C(C)(C)C)on5)cnc4C)nn3)c2)CC1` [Example I-174], the remaining activity at 2 µM stood at 8.1%. The figure for `Cc1ncc(C(=O)Nc2cc(C(C)(C)C)on2)cc1-n1cc(-c2cncc(N3CCN(CCC#N)CC3)c2)nn1` [Example I-175] is 8.1%; for `Cc1ncc(C(=O)Nc2cc(C(C)(C)C)on2)cc1-n1cc(-c2cncc(N3CCN(CC(=O)N(C)C)CC3)c2)nn1` [Example I-176] it is 6.7%. Turning to `Cc1ncc(C(=O)Nc2cc(C(C)(C)C)ncn2)cc1-n1cc(-c2cncc(N3CCN(C)CC3)c2)nn1` [Example I-177], the remaining activity at 2 µM was found to be 1.9%. Turning to `Cc1ncc(C(=O)Nc2ccnc(C(C)(C)C)c2)cc1-n1cc(-c2cncc(N3CCN(C)CC3)c2)nn1` [Example I-178], the remaining activity at 2 µM worked out at 2.3%. Turning to `Cc1ncc(C(=O)Nc2cc(C(C)(C)C)on2)cc1-n1cc(-c2cncc(N3CCN(CCO)CC3)c2)nn1` [Example I-179], the remaining activity at 2 µM turned out to be 2.6%. In the case of `Cc1ncc(C(=O)Nc2cc(C(C)(C)C)no2)cc1-n1cc(-c2cncc(N3CCN(C)CC3)c2)nn1` [Example I-180] it was 2.9%; in that of `Cc1ncc(C(=O)Nc2cc(C(C)(C)C)on2)cc1-n1cc(-c2cncc(N3CCN(CC(F)F)CC3)c2)nn1` [Example I-181], 2.3%. On to `Cc1ncc(C(=O)Nc2cc(C(C)(C)C)on2)cc1-n1cc(-c2cncc(N3CCN(CC(F)(F)F)CC3)c2)nn1` [Example I-182], for which the remaining activity at 2 µM worked out at 2.1%. Turning to `Cc1ncc(C(=O)Nc2cc(C(C)(C)C)on2)cc1-n1cc(-c2cncc(N3CCNCC3)c2)nn1` [Example I-183], the remaining activity at 2 µM was 1.8%. Turning to `Cc1ncc(C(=O)Nc2cc(C(C)(C)C)on2)cc1-n1cc(-c2cncc(CN3CCOCC3)c2)nn1` [Example I-184], the remaining activity at 2 µM was determined as 2.5%.

In the case of `Cc1ncc(C(=O)Nc2cc(C(C)(C)C)on2)cc1-n1cc(-c2cncc(CN3CCCC3)c2)nn1` [Example I-185], the remaining activity at 2 µM was 1.7%.

Turning to `Cc1ncc(C(=O)Nc2cc(C(C)(C)C)on2)cc1-n1cc(-c2cncc(CN3CCN(C)CC3)c2)nn1` [Example I-186], the remaining activity at 2 µM was 1.5%. In the case of `Cc1ncc(C(=O)Nc2cc(C(C)(C)C)on2)cc1-n1cc(-c2cncc(CN(C)C)c2)nn1` [Example I-187] it was 4.1%; in that of `CCN1CCN(Cc2cncc(-c3cn(-c4cc(C(=O)Nc5cc(C(C)(C)C)on5)cnc4C)nn3)c2)CC1` [Example I-188], 1.5%.

For the molecule `Cc1ncc(C(=O)Nc2cc(C(C)(C)C)on2)cc1-n1cc(-c2cncc(CN3CCC(F)(F)C3)c2)nn1` [Example I-189], the remaining activity at 2 µM stood at 3.8%. In the case of `Cc1ncc(C(=O)Nc2cc(C(C)(C)C)on2)cc1-n1cc(-c2cncc(CN3CCN(C(C)C)CC3)c2)nn1` [Example I-190] it was 4.1%; in that of `CCN(C)Cc1cncc(-c2cn(-c3cc(C(=O)Nc4cc(C(C)(C)C)on4)cnc3C)nn2)c1` [Example I-191], 3%; in that of `Cc1ncc(C(=O)Nc2cc(C(C)(C)C)on2)cc1-n1cc(-c2cncc(CN3CC[C@@H](F)C3)c2)nn1` [Example I-192], 1.9%. The figure for `Cc1ncc(C(=O)Nc2cc(C(C)(C)C)on2)cc1-n1cc(-c2cncc(CN3CC[C@H](F)C3)c2)nn1` [Example I-193] is 3.6%; for `Cc1ncc(C(=O)Nc2cc(C(C)(C)C)on2)cc1-n1cc(-c2cncc(CN)c2)nn1` [Example I-194] it is 2.1%. In the case of `Cc1ncc(C(=O)Nc2cc(C(C)(C)C)on2)cc1-n1cc(-c2cncc(N3CCC4(CCN(C)CC4)CC3)c2)nn1` [Example I-195] it was 0.8%. For the molecule `Cc1ncc(C(=O)Nc2cc(C(C)(C)C)on2)cc1-n1cc(-c2cncc(NC3CC(N4CCN(C)CC4)C3)c2)nn1` (stereo not drawn) [Example I-196], the remaining activity at 2 µM worked out at 1%.

Take `Cc1ncc(C(=O)Nc2cc(C(C)(C)C)on2)cc1-n1cc(-c2cncc(N3CCN(CCOC(C)C)CC3)c2)nn1` [Example I-197]: the remaining activity at 2 µM worked out at 1%. With `Cc1ncc(C(=O)Nc2cc(C(C)(C)C)on2)cc1-n1cc(-c2cncc(N3CCN(CCF)CC3)c2)nn1` [Example I-198], the remaining activity at 2 µM stood at 1.7%.

Consider `Cc1ncc(C(=O)Nc2cc(C(C)(C)C)on2)cc1-n1cc(-c2cncc(NC3CCN(C(C)C)CC3)c2)nn1` [Example I-199], for which the remaining activity at 2 µM worked out at 1.6%.

Turning to `Cc1ncc(C(=O)Nc2cc(C(C)(C)C)on2)cc1-n1cc(-c2cncc(N(C)C3CCN(C(C)C)CC3)c2)nn1` [Example I-200], the remaining activity at 2 µM amounted to 1%. The figure for `COCCN1CCCN(c2cncc(-c3cn(-c4cc(C(=O)Nc5cc(C(C)(C)C)on5)cnc4C)nn3)c2)CC1` [Example I-201] is 1.6%; for `Cc1ncc(C(=O)Nc2cc(C(C)(C)C)on2)cc1-n1cc(-c2cncc(N3CCCN(C)CC3)c2)nn1` [Example I-202] it is 1.6%. `CCC(CC)N1CCN(c2cncc(-c3cn(-c4cc(C(=O)Nc5cc(C(C)(C)C)on5)cnc4C)nn3)c2)CC1` [Example I-204]: the remaining activity at 2 µM stood at 1%. Turning to `Cc1ncc(C(=O)Nc2cc(C(C)(C)C)on2)cc1-n1cc(-c2cncc(N3CCC(N4CCN(C)CC4)CC3)c2)nn1` [Example I-205], the remaining activity at 2 µM was determined as 0.8%. In the case of `Cc1ncc(C(=O)Nc2cc(C(C)(C)C)on2)cc1-n1cc(-c2cncc(N3CCC(CN4CCOCC4)CC3)c2)nn1` [Example I-206] it was 0.9%; in that of `Cc1ncc(NC(=O)c2cc(N3CCN(C)CC3)cc(C(F)(F)F)c2)cc1-n1cc(-c2cnn(C)c2C)nn1` [XII-1], 4.4%; in that of `Cc1ncc(NC(=O)c2cc(C(F)(F)F)ccn2)cc1-n1cc(-c2cnn(C)c2C)nn1` [XII-2], 4.6%. With `Cc1ncc(NC(=O)c2cc(C(C)(C)C)on2)cc1-n1cc(-c2cnn(C)c2C)nn1` [XII-3], the remaining activity at 2 µM came out at 4.7%.

`Cc1ncc(NC(=O)c2cc(N3CCN(C)CC3)c(F)c(C(F)(F)F)c2)cc1-n1cc(-c2cnn(C)c2C)nn1` [XII-5]: the remaining activity at 2 µM was found to be 1.8%. The figure for `Cc1ncc(NC(=O)c2cccc(C(C)(C)C#N)c2)cc1-n1cc(-c2cnn(C)c2C)nn1` [XII-6] is 4.7%; for `COc1ccc(C(=O)Nc2cnc(C)c(-n3cc(-c4cnn(C)c4C)nn3)c2)cc1C(F)(F)F` [XII-7] it is 4.7%.

For the origin of these results see patent US8778929B2, “Substituted heteroaryl inhibitors of B-RAF” (Boehringer Ingelheim International GmbH, priority 2008, dated 2014).
